Marks after values point to notes of the source that are not given here.
Tests used:
[1] = Blood pressure in normal healthy humans; type: in vivo, human
[2] = tested on: leukotriene B4 (LTB4) expression; assay: LTB4 expression from calcium ionophore-stimulated rat basophilic leukemia cells; type: cell-based
[3] = tested on: monosodium iodoacetate (MIA)-induced osteoarthritis; assay: MIA rat model, chronic oral b.i.d. dosing: change in hind paw weight distribution (joint function limitation / joint pain); type: in vivo; details: for IJFL (Inhibition of Joint Function Limitation) (% +/− SEM): four week study; for change in hind paw weight distribution: Days 7, 14 and 28 (FIG. 3); for inhibition of change in hind paw weight distribution: 30 mg/kg PO b.i.d.
Description: It should be appreciated that in Biological Methods 1, 2, 4, and 5 below, hind paw weight bearing differentials between the paw of the limb having the control joint (in animals administered test compound vehicle only) and the paw of the limb having the contralateral test joint (in control or inducement animals administered test compound vehicle only and in treatment animals administered test compound dissolved in test compound vehicle) were determined using an incapacitance tester, model 2KG (Linton Instrumentation, Norfolk, United Kingdom). The incapacitance tester has a chamber on top with an outwardly sloping front wall that supports a rat's front limbs, and two weight sensing pads, one for each hind paw, that facilitates this determination. The hind paw weight bearing differentials were expressed in grams and calculated as follows: (the average weight in grams placed on the control limb minus the average weight in grams placed on the contralateral test limb for each of the inducement or treatment animals) minus (the average weight in grams placed on the control limb minus the average weight in grams placed on the contralateral test limb for each of the control animals). All results were statistically analyzed by comparing the average results for an induction or treatment group with the average result for its control group at the same time point using analysis of covariance (“ANCOVA”) followed by the Hoehberg's procedure and those with statistical significance had p<0.05 unless otherwise noted.
Generally, In the MIA Rat model on Day 0, the hind-paw weight differential between the right arthritic joint and the left healthy joint of male Wistar rats (150 g) are determined with an incapacitance tester, model 2KG (Linton Instrumentation, Norfolk, United Kingdom). The incapacitance tester has a chamber on top with an outwardly sloping front wall that supports a rat's front limbs, and two weight sensing pads, one for each hind paw, that facilitates this determination. Then the rats are anesthetized with isofluorine, and the right, hind leg knee joint is injected with 1.0 mg of mono-iodoacetate (“MIA”) through the infrapatellar ligament. Injection of MIA into the joint results in the inhibition of glycolysis and eventual death of surrounding chondrocytes. The rats are further administered either an active compound useful in the invention method, or a pharmaceutically acceptable salt thereof, or vehicle (in the instant case, water) daily for 14 days or 28 days. The substituted dialkyl ether, substituted aryl-alkyl ether, substituted dialkyl thioether, substituted dialkyl ketone, or substituted-alkyl compound useful in the invention method, or a pharmaceutically acceptable salt thereof, is typically administered at a dose of 30 mg of substituted dialkyl ether, substituted aryl-alkyl ether, substituted dialkyl thioether, substituted dialkyl ketone, or substituted-alkyl compound useful in the invention method, or a pharmaceutically acceptable salt thereof, per kilogram of rat per day (30 mg/kg/day), but may be administered at other doses such as, for example, mg/kg/day, 60 mg/kg/day, 90-mg/kg/day, or 100 mg/kg/day according to the requirements of the compound being studied. It is well within the level of ordinary skill in the pharmaceutical arts to determine a proper dosage of an active compound useful in the invention method, or a pharmaceutically acceptable salt thereof, in this model. Administration of the substituted dialkyl ether, substituted aryl-alkyl ether, substituted dialkyl thioether, substituted dialkyl ketone, or substituted-alkyl compound useful in the invention method, or a pharmaceutically acceptable salt thereof, in this model is optionally by oral administration or intravenous administration via an osmotic pump. After 7 and 14 days for a two week study, or 7, 14, and 28 days for a four week study, the hind-paw weight distribution is again determined. […]

[4] = tested on: experimental osteoarthritis (anterior cruciate ligament section); assay: Experimental osteoarthritis in rabbit (EOA in Rabbit); type: in vivo; details: 30 or 10 mg/kg/dose three times per day, 8 weeks; 'if these EOA studies were performed'
Description: Normal rabbits are anaesthetized and anteromedial incisions of the right knees performed. The anterior cruciate ligaments are visualized and sectioned. The wounds are closed and the animals are housed in individual cages, exercised, and fed ad libitum. Rabbits are given either vehicle (water) or 6-(5-carboxy-5-methyl-hexyloxy)-2,2-dimethyl-hexanoic acid, calcium salt, or a pharmaceutically acceptable salt thereof, (10 rabbits per group). Each group is dosed three times per day with the 6-(5-carboxy-5-methyl-hexyloxy)-2,2-dimethyl-hexanoic acid, calcium salt, or a pharmaceutically acceptable salt thereof, group receiving 30-mg/kg/dose or 10-mg/kg/dose. The rabbits are euthanized 8 weeks after surgery and the proximal end of the tibia and the distal end of the femur are removed from each animal.
The cartilage changes on the femoral condyles and tibial plateaus are graded separately under a dissecting microscope (Stereozoom, Bausch & Lomb, Rochester, N.Y.). […] The surface area changes are measured and expressed in mm^2. […]
Representative specimens of synovial membrane from the medial and lateral knee compartments are dissected from underlying tissues. […] The average score is calculated and considered as a unit for the whole knee. […]
Mean values and SEM are calculated and statistical analysis is done using the Mann-Whitney U-test.

CC(C)(CCCCOCCCCC(C)(C)C(=O)[O-])C(=O)[O-].[Ca+2] [CI-1027, 6-(5-carboxy-5-methyl-hexyloxy)-2,2-dimethyl-hexanoic acid, calcium salt]
effect on blood pressure [1]: no effect or perhaps even slightly (1-5 mmHg) decreases
inhibition of LTB4 expression [2]: does not inhibit
IJFL (Inhibition of Joint Function Limitation) (% +/− SEM) ([3]; 3 mg/kg PO BID): 3 +/− 156%
change in hind paw weight distribution ([3]; 3 mg/kg PO b.i.d.): no statistically significant changes
IJFL (Inhibition of Joint Function Limitation) (% +/− SEM) ([3]; 10 mg/kg PO BID): 36 +/− 9%
change in hind paw weight distribution ([3]; 10 mg/kg PO b.i.d.): no statistically significant changes
IJFL (Inhibition of Joint Function Limitation) (% +/− SEM) ([3]; 30 mg/kg PO BID, dose-response experiment): 63 +/− 8^a %
IJFL (Inhibition of Joint Function Limitation) (% +/− SEM) ([3]; 30 mg/kg PO BID, single-dose-level experiment (last table row)): 60 +/− 8^a %
inhibition of change in hind paw weight distribution ([3]; Day 7, dose-response experiment (FIG. 3), not significant): 38±14%
inhibition of change in hind paw weight distribution ([3]; Day 7, first experiment (FIG. 2)): 47±8%
inhibition of change in hind paw weight distribution ([3]; Day 14, dose-response experiment (FIG. 3)): 50±10%
inhibition of change in hind paw weight distribution ([3]; Day 14, first experiment (FIG. 2)): 71±9%
inhibition of change in hind paw weight distribution ([3]; Day 28, dose-response experiment (FIG. 3)): 62±8%
inhibition of change in hind paw weight distribution ([3]; Day 28, first experiment (FIG. 2)): 60±8%
lesion size on tibial plateaus / cartilage damage [4]: reduce the size of the lesion on the tibial plateaus

From US20070203212A1, “METHOD OF TREATING OSTEOARTHRITIS” (WARNER-LAMBERT COMPANY, priority 2002, published 2007)
